Reference: patent US20240124412A1, “IKAROS ZINC FINGER FAMILY DEGRADERS AND USES THEREOF” (Gilead Sciences, Inc., priority 2021, published 2024)

Key:
IKZF2 = biological target: T1, IKZF2 (Homo sapiens, UniProt Q96SW2+Q9UKS7); assay: HiBiT protein tagging assay, in vitro IKZF2 degradation (HEK293); assay type: cell-based; conditions: HEK293, 18-24 hr incubation, normalized to DMSO control; for Dmax: HEK293, HiBiT assay, read-out: IKZF2 Dmax (maximum degradation at the highest concentration tested); for DC50: HiBiT assay, read-out: IKZF2 EC50
T1 construct: expressed in transfected cells
T1 sequence (Q9UKS7 1-500 isoform Q9UKS7-2): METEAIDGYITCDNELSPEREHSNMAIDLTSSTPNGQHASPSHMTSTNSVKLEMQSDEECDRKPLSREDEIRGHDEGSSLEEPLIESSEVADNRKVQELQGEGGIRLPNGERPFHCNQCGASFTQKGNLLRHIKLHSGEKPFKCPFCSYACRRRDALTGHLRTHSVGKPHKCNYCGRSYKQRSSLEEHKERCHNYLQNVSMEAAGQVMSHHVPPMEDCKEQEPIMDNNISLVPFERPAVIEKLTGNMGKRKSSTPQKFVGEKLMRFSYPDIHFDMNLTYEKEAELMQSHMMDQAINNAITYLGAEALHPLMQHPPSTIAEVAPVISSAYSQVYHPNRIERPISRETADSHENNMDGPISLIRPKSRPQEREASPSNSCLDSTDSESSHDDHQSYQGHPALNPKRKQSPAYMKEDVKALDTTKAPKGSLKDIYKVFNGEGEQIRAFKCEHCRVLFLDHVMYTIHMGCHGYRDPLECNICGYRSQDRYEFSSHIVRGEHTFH
T1 sequence (Q96SW2 whole entry): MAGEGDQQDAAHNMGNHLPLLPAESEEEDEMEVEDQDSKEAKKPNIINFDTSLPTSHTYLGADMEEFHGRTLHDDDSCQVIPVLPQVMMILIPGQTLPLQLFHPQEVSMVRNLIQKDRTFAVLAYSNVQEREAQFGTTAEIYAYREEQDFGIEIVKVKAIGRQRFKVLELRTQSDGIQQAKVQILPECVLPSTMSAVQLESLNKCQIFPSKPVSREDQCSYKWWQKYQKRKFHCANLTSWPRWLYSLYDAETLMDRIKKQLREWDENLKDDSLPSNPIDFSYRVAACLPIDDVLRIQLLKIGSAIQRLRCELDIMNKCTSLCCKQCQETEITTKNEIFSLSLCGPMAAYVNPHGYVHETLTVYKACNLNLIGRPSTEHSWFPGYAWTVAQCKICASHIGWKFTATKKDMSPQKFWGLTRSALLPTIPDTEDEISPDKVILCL
T1 sequence (Q16531 whole entry partner): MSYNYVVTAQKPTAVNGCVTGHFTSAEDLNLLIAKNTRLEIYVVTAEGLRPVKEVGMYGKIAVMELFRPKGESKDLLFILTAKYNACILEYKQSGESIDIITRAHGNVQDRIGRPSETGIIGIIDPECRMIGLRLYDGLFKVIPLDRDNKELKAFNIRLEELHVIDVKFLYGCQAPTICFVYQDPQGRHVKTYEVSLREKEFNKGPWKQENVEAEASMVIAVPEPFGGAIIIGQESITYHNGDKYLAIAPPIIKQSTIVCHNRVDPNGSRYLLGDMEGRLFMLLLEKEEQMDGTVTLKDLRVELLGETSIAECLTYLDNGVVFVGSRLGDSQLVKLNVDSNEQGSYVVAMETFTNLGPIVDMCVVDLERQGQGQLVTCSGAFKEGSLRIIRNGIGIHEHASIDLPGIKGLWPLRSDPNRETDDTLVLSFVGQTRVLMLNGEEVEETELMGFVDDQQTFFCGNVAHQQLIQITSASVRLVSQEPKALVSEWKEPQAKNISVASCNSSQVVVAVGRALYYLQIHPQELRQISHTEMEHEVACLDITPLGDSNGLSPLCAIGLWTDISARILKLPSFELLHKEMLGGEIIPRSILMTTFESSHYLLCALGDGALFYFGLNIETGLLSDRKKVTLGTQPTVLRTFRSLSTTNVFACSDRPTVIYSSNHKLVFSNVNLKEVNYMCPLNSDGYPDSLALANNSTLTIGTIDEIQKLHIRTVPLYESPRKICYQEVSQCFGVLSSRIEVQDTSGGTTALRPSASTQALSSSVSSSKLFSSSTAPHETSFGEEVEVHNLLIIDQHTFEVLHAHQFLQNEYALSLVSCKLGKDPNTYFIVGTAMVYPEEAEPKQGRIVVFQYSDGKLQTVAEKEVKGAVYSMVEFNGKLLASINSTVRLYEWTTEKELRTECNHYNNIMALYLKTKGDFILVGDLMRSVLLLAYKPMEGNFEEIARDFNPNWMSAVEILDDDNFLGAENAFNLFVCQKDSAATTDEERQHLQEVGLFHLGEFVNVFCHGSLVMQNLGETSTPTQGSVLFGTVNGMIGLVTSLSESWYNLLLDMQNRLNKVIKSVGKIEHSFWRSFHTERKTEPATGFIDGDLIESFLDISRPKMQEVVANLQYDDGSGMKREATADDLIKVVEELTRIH
Method: (§1) In vitro degradation of IKZF1 and IKZF2 was measured using HiBiT protein tagging and detection technology (Promega).
(§2) HiBiT technology (Promega) was used to develop the quantitative assays to measure the cellular IKZFs level by tagging an 11 amino acid HiBit peptides VSGWRLFKKIS (SEQ ID NO:1) to the protein of interest. Reporter plasmids were generated by fusing a linker sequence (GSSGGSSG; SEQ ID NO:2) followed by the HiBiT tag at the C terminus of IKZF1 and IKZF2. The fusion fragments were subsequently cloned into pcDNA5 pcDNA™5/FRT/TO plasmids (Thermo Fisher, cat #V652020) downstream of the Tetracycline operator. The resulting plasmids were co-transfected with pOG44 Flp-Recombinase Expression Vector (Thermo Fisher, cat #V600520) into Flp-In™ T-REx HEK293 line (Thermo Fisher, cat #R78077) and a stable cell pool was selected by adding 100 μg/ml of Hygromycin (Thermo Fisher, cat #10687010). The reporter cell enabled Tet-On inducible reporter expression from a single copy of the integrated gene.
(§3) On Day 1, Cells were grown to ˜80% confluency in TC medium (DMEM Glutamax (Gibco10569), 10% Tet free FBS (Takara 631106), and PenStrep Glutamin (Gibco 10378)) in tissue culture flasks. Doxycycline was then added to a final concentration of 1 μg/ml to induce reporter expression at 37° C. overnight.
(§4) On Day 2, 125 nL of serially-diluted solution of testing compounds were dispensed into 384-well white solid assay plates via ECHO acoustic liquid handler. Cells were lifted by 0.25% Trypsin (Gibco 25200) then pelleted by centrifugation (Beckman Avanti J-E) at 500×g for 5 min. Cell pellets were resuspended in TC medium at the concentration of 3e5/mL and 25 μL of cell suspension were added into each well of compound-spotted plates. The plates were returned to a 37° C. incubator overnight (18-24 hr).
(§5) On Day 3, assay plates were removed from the TC incubator and 25 μL of Nano-Glo lytic detection system (Promega, cat #N3030) was added to each well. Plates were incubated at r.t. for 3 min with shaking, and luminescence was read using an Envision reader (Perkin Elmer).
(§6) All raw data was normalized to DMSO control (final concentration: 0.5%) wells as POC and plotted out for EC50 and Dmax (Maximum degradation at the highest concentration tested in the assay).

IKZF1 = biological target: T2, IKZF1 (Homo sapiens, UniProt Q13422+Q96SW2); assay: HiBiT protein tagging assay, in vitro IKZF1 degradation (HEK293); assay type: cell-based; conditions: HEK293, 18-24 hr incubation, normalized to DMSO control; for Dmax: read-out: IKZF1 Dmax (maximum degradation at the highest concentration tested); for DC50: read-out: IKZF1 EC50
T2 construct: expressed in transfected cells
T2 sequence (Q13422 whole entry): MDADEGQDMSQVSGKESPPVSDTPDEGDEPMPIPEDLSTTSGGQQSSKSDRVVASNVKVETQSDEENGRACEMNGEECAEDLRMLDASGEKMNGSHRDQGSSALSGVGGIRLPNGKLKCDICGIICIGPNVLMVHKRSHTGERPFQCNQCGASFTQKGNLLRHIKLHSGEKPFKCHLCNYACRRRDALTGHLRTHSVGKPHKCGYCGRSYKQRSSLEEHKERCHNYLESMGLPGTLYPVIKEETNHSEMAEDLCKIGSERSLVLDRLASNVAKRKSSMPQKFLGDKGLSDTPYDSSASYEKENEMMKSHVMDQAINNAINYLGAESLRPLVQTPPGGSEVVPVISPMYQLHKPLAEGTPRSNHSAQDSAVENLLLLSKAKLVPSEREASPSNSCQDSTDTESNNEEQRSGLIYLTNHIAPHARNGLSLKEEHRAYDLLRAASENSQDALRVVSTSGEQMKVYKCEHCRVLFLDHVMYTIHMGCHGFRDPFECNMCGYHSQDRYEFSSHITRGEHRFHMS
T2 sequence (Q96SW2 whole entry): as the sequence (Q96SW2 whole entry) above
T2 sequence (Q16531 whole entry partner): as the sequence (Q16531 whole entry partner) above
Method: as §1, §2, §3, §4, §5, §6

| SMILES | Dmax (IKZF2) [%] | DC50 (IKZF2) [nM] | Dmax (IKZF1) [%] | DC50 (IKZF1) [nM] |
| --- | --- | --- | --- | --- |
| O=C1CCC(N2Cc3cc(CN[C@H]4CCC[C@H](Cc5ccccc5)C4)ccc3C2=O)C(=O)N1 (relative stereo) [Example 11, 3-(5-((((1,3-trans)-3-benzylcyclohexyl)amino)methyl)-1-oxoisoindolin-2-yl)piperidine-2,6-dione] | 68 | 81 | 67 | 25 |
| O=C1CCC(N2Cc3cc(CN[C@H]4CCC[C@@H](Cc5ccccc5)C4)ccc3C2=O)C(=O)N1 (relative stereo) [Example 12, 3-(5-((((1,3-cis)-3-benzylcyclohexyl)amino)methyl)-1-oxoisoindolin-2-yl)piperidine-2,6-dione] | 96 | 10 | 95 | 3 |
| O=C1CCC(N2Cc3cc(CN[C@@H]4CCCC[C@@H]4O)ccc3C2=O)C(=O)N1 (relative stereo) [Example 49, 3-(5-(((cis-2-Hydroxycyclohexyl)amino)methyl)-1-oxoisoindolin-2-yl)piperidine-2,6-dione] | 70 | 449 | 38 | 153 |
| O=C1CCC(N2Cc3cc(CNC4CCN(Cc5ccccc5)CC4)ccc3C2=O)C(=O)N1 (centres unmarked) [Example 1, 3-(5-(((1-benzylpiperidin-4-yl)amino)methyl)-1-oxoisoindolin-2-yl)piperidine-2,6-dione] | 67 | 342 | 51 | 255 |
| O=C1CCC(N2Cc3cc(CNC4CCN(c5ccccc5)CC4)ccc3C2=O)C(=O)N1 (centres unmarked) [Example 2, 3-(1-oxo-5-(((1-phenylpiperidin-4-yl)amino)methyl)isoindolin-2-yl)piperidine-2,6-dione] | 83 | 58 | 80 | 19 |
| O=C1CCC(N2Cc3cc(CNC4CCN(C(=O)OCc5ccccc5)CC4)ccc3C2=O)C(=O)N1 (centres unmarked) [Example 3, benzyl 4-(((2-(2,6-dioxopiperidin-3-yl)-1-oxoisoindolin-5-yl)methyl)amino)piperidine-1-carboxylate] | 94 | 39 | 95 | 7 |
| O=C1CCC(N2Cc3cc(CNC4CCN(C(=O)NCc5ccccc5)CC4)ccc3C2=O)C(=O)N1 (centres unmarked) [Example 4, N-benzyl-4-(((2-(2,6-dioxopiperidin-3-yl)-1-oxoisoindolin-5-yl)methyl)amino)piperidine-1-carboxamide] | 95 | 1700 | 95 | 68 |
| O=C1CCC(N2Cc3cc(CNC4CCCCC4)ccc3C2=O)C(=O)N1 (centres unmarked) [Example 5, 3-(5-((Cyclohexylamino)methyl)-1-oxoisoindolin-2-yl)piperidine-2,6-dione] | 78 | 118 | 38 | 123 |
| O=C1CCC(N2Cc3cc(CNC4CCOCC4)ccc3C2=O)C(=O)N1 (centres unmarked) [Example 6, 3-(1-oxo-5-(((tetrahydro-2H-pyran-4-yl)amino)methyl)isoindolin-2-yl)piperidine-2,6-dione] | 78 | 181 | 92 | 148 |
| O=C1CCC(N2Cc3cc(CNC4CCC(F)(F)CC4)ccc3C2=O)C(=O)N1 (centres unmarked) [Example 7, 3-(5-(((4,4-difluorocyclohexyl)amino)methyl)-1-oxoisoindolin-2-yl)piperidine-2,6-dione] | 80 | 104 | 70 | 53 |
| O=C1CCC(N2Cc3cc(CNC4CCCC4)ccc3C2=O)C(=O)N1 (centres unmarked) [Example 8] | 55 | 143 | 26 | 131 |
| CC(C)NCc1ccc2c(c1)CN(C1CCC(=O)NC1=O)C2=O (centres unmarked) [Example 9, 3-(5-((isopropylamino)methyl)-1-oxoisoindolin-2-yl)piperidine-2,6-dione] | 48 | 738 | 51 | 351 |
| O=C1CCC(N2Cc3cc(CNC4CCC(Cc5ccccc5)CC4)ccc3C2=O)C(=O)N1 (centres unmarked) [Example 10, 3-(5-(((4-benzylcyclohexyl)amino)methyl)-1-oxoisoindolin-2-yl)piperidine-2,6-dione] | 80 | 117 | 51 | 121 |
| O=C1CCC(N2Cc3cc(CN[C@H]4CCc5ccccc5C4)ccc3C2=O)C(=O)N1 (stereo partly drawn) [Example 13, 3-(1-oxo-5-((((S)-1,2,3,4-tetrahydronaphthalen-2-yl)amino)methyl)isoindolin-2-yl)piperidine-2,6-dione] | 73 | 23 | 48 | 31 |
| O=C1CCC(N2Cc3cc(CN[C@@H]4CCc5ccccc5C4)ccc3C2=O)C(=O)N1 (stereo partly drawn) [Example 14, 3-(1-oxo-5-((((R)-1,2,3,4-tetrahydronaphthalen-2-yl)amino)methyl)isoindolin-2-yl)piperidine-2,6-dione] | 43 | 48 | 35 | 23 |
| O=C1CCC(N2Cc3cc(CNC45CC(C4)C5)ccc3C2=O)C(=O)N1 (centres unmarked) [Example 15, 3-(5-((bicyclo[1.1.1]pentan-1-ylamino)methyl)-1-oxoisoindolin-2-yl)piperidine-2,6-dione] | 29 | 1800 |  | > 10000 |
| C[C@@H](NCc1ccc2c(c1)CN(C1CCC(=O)NC1=O)C2=O)c1ccccc1 (stereo partly drawn) [Example 16, 3-(1-oxo-5-((((R)-1-phenylethyl)amino)methyl)isoindolin-2-yl)piperidine-2,6-dione] | 54 | 260 | 71 | 41 |
| O=C1CCC(N2Cc3cc(CN[C@H]4CCOc5ccccc54)ccc3C2=O)C(=O)N1 (stereo partly drawn) [Example 17, 3-(5-((((S)-chroman-4-yl)amino)methyl)-1-oxoisoindolin-2-yl)piperidine-2,6-dione] | 48 | 230 | 65 | 31 |
| CN(Cc1ccc2c(c1)CN(C1CCC(=O)NC1=O)C2=O)C1CCN(Cc2ccccc2)CC1 (centres unmarked) [Example 18, 3-(5-(((1-benzylpiperidin-4-yl)(methyl)amino)methyl)-1-oxoisoindolin-2-yl)piperidine-2,6-dione] | 21 | 328 |  | > 10000 |
| O=C1CCC(N2Cc3cc(CN[C@H]4CCN(Cc5ccccc5)C4)ccc3C2=O)C(=O)N1 (stereo partly drawn) [Example 19, 3-(5-((((S)-1-benzylpyrrolidin-3-yl)amino)methyl)-1-oxoisoindolin-2-yl)piperidine-2,6-dione] | 52 | 442 | 46 | 122 |
| O=C1CCC(N2Cc3cc(CN[C@@H]4CCCN(Cc5ccccc5)C4)ccc3C2=O)C(=O)N1 (stereo partly drawn) [Example 20, 3-(5-((((R)-1-benzylpiperidin-3-yl)amino)methyl)-1-oxoisoindolin-2-yl)piperidine-2,6-dione] | 97 | 32 | 95 | 7 |
| O=C1CCC(N2Cc3cc(CN[C@H]4CCCN(Cc5ccccc5)C4)ccc3C2=O)C(=O)N1 (stereo partly drawn) [Example 21, 3-(5-((((S)-1-benzylpiperidin-3-yl)amino)methyl)-1-oxoisoindolin-2-yl)piperidine-2,6-dione] | 72 | 261 | 79 | 56 |
